{
  "source": "patent US20030211075A1",
  "about": "(priority 2001, published 2003)",
  "key": {"[1]": {"system": "C1300 Muγ mouse neuroblastoma", "test": "C1300 (Muγ) tumor model, coaguligand and tTF: thrombosis and anti-tumor effects", "type": "in vivo"}, "[2]": {"system": "H460 human non-small cell lung carcinoma", "test": "Anti-tumor effects, H460", "type": "in vivo, mouse", "settings": "second treatment at 900 mm^3", "protocol": "The tumor test systems were: i) L540 human Hodgkin's disease tumors growing in SCID mice; ii) C1300 Muγ (interferon-secreting) neuroblastoma growing in nu/nu mice; iii) H460 human non-small cell lung carcinoma growing in nu/nu mice. To establish solid tumors, 1.5×10^7 tumor cells were injected subcutaneously into the right anterior flank of SCID or BALB/c nu/nu mice (Charles River Labs., Wilmingham, Mass.). When the tumors had grown to various diameters, mice were assigned to different experimental groups, each containing 4 to 9 mice.\nOther mice received equivalent quantities of bispecific antibody alone. The injections were performed over ˜45 seconds into one of the tail veins, followed by 200 μl of saline. The infusions were repeated six days later. Perpendicular tumor diameters were measured at regular intervals and tumor volumes were calculated."}, "3LL mouse lung carcinoma": {"system": "3LL mouse lung carcinoma", "test": "In vivo tumor thrombosis, 3LL", "settings": "large (>800 mm^3) tumors", "source_text": "Tumor test systems were of four types: i) 3LL mouse lung carcinoma growing subcutaneously in C57BL/6 mice; ii) C1300 mouse neuroblastoma growing subcutaneously in BALB/c nu/nu mice; iii) HT29 human colorectal carcinoma growing subcutaneously in BALB/c nu/nu mice; and iv) C1300 Muγ mouse neuroblastoma growing subcutaneously in BALB/c nu/nu mice. The C1300 Muγ tumor is an interferon-y secreting transfectant derived from the C 1300 tumor (Watanabe et al., 1989).\nTo establish tumors, 10^6 to 1.5×10^7 tumor cells were injected subcutaneously into the right anterior flank of the mice. When tumors had grown to various sizes, mice were randomly assigned to different study groups. […] Fab′, or bispecific antibody. Other mice received equivalent quantities IgG, Fab′ or bispecific antibody alone. The injections were performed slowly into one of the tail veins over approximately 45 seconds, usually followed by 200 μl of saline.\nTwenty-four hours after being injected with tTF or immunoglobulin-tTF conjugates, the mice were anesthetized with metophane and were exsanguinated by perfusion with heparinized saline. Tumors and normal tissues were excised and immediately fixed in 3% (v/v) formalin. Paraffin sections were cut and stained with hematoxylin and eosin. Blood vessels having open lumens containing erythrocytes and blood vessels containing thrombi were counted. […]"}, "F9 sarcoma": {"system": "F9 sarcoma", "test": "F9 sarcoma mouse model, tumor tissue necrosis", "type": "in vivo", "settings": "tTF 4 μg, endotoxin 0.5 μg; three days; spontaneous necrosis 40-50%", "protocol": "1×10^7 F9 sarcoma cells were injected subcutaneously into the right flank of balb/c nude mice. Subcutanous tumors were measured with a caliper in three perpendicular directions a, b, and c and volumes calculated according to the formula V=π/6×a×b×c. Treatment was initiated when subcutaneous tumors reached a size of 150 to 300 μl.\nReagents were administered into the lateral tail vein.\nMice were closely observed after treatment for clinical signs of toxicity and clinical status was documented at defined time points. Three days after treatment, mice were sacrificed and tumors were harvested. Paraffin embedded tissues were stained with hematoxilin and eosin (H&E). Tissue sections were analyzed on a light microscope by two independent investigators and histological findings were documented. Tumor sections with necrotic areas were scanned with a GS-700 imaging densitometer (Biorad, Hercules, Calif.) and areas of necrosis were calculated as % of total section area."}, "immobilized tTF": {"biological_target": "T1, immobilized tTF (Homo sapiens, UniProt P13726)", "T1 construct": "amino acid 1-219 of the mature protein; made in house; host or cells: E. coli", "T1 sequence (P13726 33-251)": "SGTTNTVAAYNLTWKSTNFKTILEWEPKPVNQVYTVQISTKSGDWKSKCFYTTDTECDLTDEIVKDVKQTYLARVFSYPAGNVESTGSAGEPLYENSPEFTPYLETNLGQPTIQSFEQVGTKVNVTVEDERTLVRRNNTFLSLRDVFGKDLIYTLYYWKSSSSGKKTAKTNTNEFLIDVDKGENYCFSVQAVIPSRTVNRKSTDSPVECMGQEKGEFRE", "test": "Real time binding of tTF to immobilized tTF (surface plasmon resonance)", "settings": "tTF 30 μg/ml alone or preincubated with endotoxin or factor VIIa"}, "[3]": {"system": "thrombin-antithrombin-complexes (TAT), antithrombin III (ATIII)", "test": "Coagulation parameters in plasma three days after treatment", "type": "in vivo, mouse", "settings": "tTF alone; plasma three days after i.v. treatment"}, "[4]": {"system": "L540 human Hodgkin's disease tumors", "test": "Treatment of L540rec tumor-bearing SCID mice with tTF and/or endotoxin, tumor tissue necrosis by densitometry", "type": "in vivo, mouse", "settings": "for % tumor necrosis: tTF alone (4 μg; 4 μg or 16 μg), no endotoxin, three days after i.v. treatment; for anti-tumor effect: tTF alone", "protocol": "For in vivo studies, a metastasizing mouse model for human Hodgkin's lymphoma was used. 1×10^7 L540rec cells were injected subcutaneously into the right flank of SCID mice resulting in a subcutaneous tumor with lymph node metastases in the regional lymph node stations. Subcutanous tumors were measured with a caliper in three perpendicular directions a, b, and c, and volumes calculated according to the formula V=π/6×a×b×c.\nTreatment was initiated when subcutaneous tumors reached a size of 150 to 300 μl. Reagents were administered into the lateral tail vein.\n(§1) Mice were closely observed after treatment for clinical signs of toxicity and clinical status was documented at defined time points (5 minutes, 10 minutes, 15 minutes, 30 minutes. 1 hour. 2 hours, 24 hours, 48 hours, 72 hours). Blood samples were taken from the tail vein at 1 hour, 2 hours and 24 hours to measure TNFα blood levels. Three days after treatment, the mice were anesthetized, blood samples were taken from the vena cava for coagulation tests, and an autopsy was performed to document any changes in gross pathology. Tumors, lymph node metastases and the major normal organs (heart, lung, brain, liver, kidney, colon, spleen, pancreas) were harvested and prepared for histological analysis.\nTissue samples harvested at the time of autopsy were fixed in 3% NBF (normal buffered formalin) and embedded in paraffin wax. Tissue blocs were cut, dewaxed and stained with hematoxilin and eosin (H&E). Tissue sections were analyzed on a light microscope by two independent investigators and histological findings were documented. Tumor sections with necrotic areas were scanned with a GS-700 imaging densitometer (Biorad, Hercules, Calif.) and areas of necrosis were calculated as % of total section area. Statistical Analysis was performed using SPSS software (SPSS Science Software, Erkrath, Germany) applying the Mann-Whitney-U-test for ungrouped data."}, "TNFα": {"system": "TNFα", "test": "TNFα serum levels in treated animals", "type": "in vivo, mouse", "settings": "tTF containing no endotoxin (n=6), 1, 2 and 24 hours", "protocol": "as §1\nTNFα levels in serum were determined using the Quantikine-M kit (R&D Systems, Minneapolis, Minn.) according to the manufacturer's instructions."}, "A20 lymphoma cells": {"system": "A20 lymphoma cells", "test": "In vitro coagulation assay on A20 cells", "type": "cell-based, mouse"}, "[5]": {"system": "2F2B mouse endothelial cells", "test": "Binding of tTF to endothelial cells (FACS, cell bound coagulation assay)", "type": "cell-based", "protocol": "Cells were washed and coagulation factor mix (as described above) was added. S2765 substrate was added and Factor Xa generation was measured as described above.\n2F2B cells were stimulated with LPS (20 μg/ml) or TNFα (500 U/ml) for 4 h at 37° C. […] Fluorescent cells were detected on a flow cytometer (Becton Dickinson, San Jose, Calif.)."}},
  "data": [
    {"substance": "tTF: extracellular domain of the mature Tissue Factor protein (amino acid 1-219), recombinant truncated human Tissue Factor", "values": [
      {"measurement": "thrombosis of tumor vessels", "setting": "[1]; 24 hours after injection of tTF219", "value": "practically all vessels in all regions of the tumor were thrombosed"},
      {"measurement": "thrombi or morphological abnormalities in normal organs", "setting": "[1]; paraffin sections 30 minutes to 24 hours after administration", "value": "neither thrombi, nor histological or morphological abnormalities were visible"},
      {"measurement": "effect on tumor vessels", "setting": "[1]; small (<500 mm^3) tumors", "value": "largely unaffected"},
      {"measurement": "tumor growth versus antibodies or saline alone", "setting": "[1]; tTF alone or mixed with control bispecific antibodies", "value": "grew significantly more slowly"},
      {"measurement": "tumor volume after second treatment", "setting": "[2]", "value": 550, "unit": "mm^3"},
      {"measurement": "tumor vessels thrombosed, average", "setting": "3LL mouse lung carcinoma", "value": 62, "unit": "%"},
      {"measurement": "tumor tissue necrosis", "setting": "F9 sarcoma", "value": 45, "unit": "%"},
      {"measurement": "binding to immobilized tTF", "setting": "immobilized tTF", "value": "did not bind to or homodimerize with immobilized tTF"},
      {"measurement": "TAT", "setting": "[3]", "value": 25.4, "unit": "ng/mL"},
      {"measurement": "% tumor necrosis", "setting": "[4]", "value": 0, "unit": "%"},
      {"measurement": "% tumor necrosis", "setting": "[4]; listed as TTF", "value": 4, "unit": "%"},
      {"measurement": "% tumor necrosis", "setting": "[4]; listed as endotoxin-free tTF", "value": 0, "unit": "%"},
      {"measurement": "anti-tumor effect", "setting": "[4]; 4 μg to 16 μg", "value": "no anti-tumor effect"},
      {"measurement": "anti-tumor effect", "setting": "[4]; 100 μg", "value": "anti-tumor effects begin to appear"},
      {"measurement": "TNFα serum level", "setting": "TNFα", "value": "could not be detected"},
      {"measurement": "increase in coagulation-inducing potency", "setting": "A20 lymphoma cells; 0.1 nM Factor VIIa", "value": "2-5 fold"},
      {"measurement": "plasma coagulation time", "setting": "A20 lymphoma cells; 10^−10 M tTF219, 13.5 nM Factor VIIa", "value": 20, "unit": "s"},
      {"measurement": "plasma coagulation time", "setting": "A20 lymphoma cells; 10^−10 M tTF219, absence of Factor VIIa", "value": 60, "unit": "s"},
      {"measurement": "concentration at which plasma coagulated in 50 seconds", "setting": "A20 lymphoma cells; localized on A20 cells via bispecific antibody B21-2/10H10", "value": 3, "unit": "nM"},
      {"measurement": "time to visible fibrin strands", "setting": "A20 lymphoma cells; tTF bound to A20 cells by B21-2/10H10, mouse plasma, untreated cells 164 seconds", "value": 36, "unit": "s"},
      {"measurement": "binding to endothelial cells expressing tissue factor", "setting": "[5]", "value": "no binding"}
    ]}
  ]
}
